# Experimental data reported in ChEMBL document CHEMBL5131397, “Discovery and Optimization of Pyrazole Amides as Inhibitors of ELOVL1” (J Med Chem, 2021).
# Activity calls are given as the source filed them. The rule behind the calls is not given here.
# Experiments:
# [1] = Reduction in C26:0/C16:0 LPC level in wild-type Sprague-Dawley rat at 300 mg/kg, po qd treated for 7 days by LC-MS/MS analysis; assay type: functional; set-up: scale not given: the % may be the effect or the level left; conditions: time 7 day
# [2] = Toxicity in Sprague-Dawley rat assessed as ocular inflammation at 5 mg/kg/day, po administered for 8 weeks by microscopic observation analysis; assay type: organism-based; conditions: in vivo, 1344 h
# [3] = Toxicity in Cynomolgus monkey assessed as dry and red scaly areas on face at 5 to 50 mg/kg/day, po administered for 14 days by macroscopic observation analysis; assay type: organism-based, Macaca fascicularis; conditions: in vivo, 336 h, dose 5-50 mg/kg/day, time 14 day
# [4] = Reduction in C26:0/C16:0 LPC level in ABCD1 knock out mouse CNS at 8 mg/kg, po qd measured after 6 months of dosing by LC-MS/MS analysis; assay type: functional; set-up: scale not given: the % may be the effect or the level left; conditions: 4380 h
# [5] = Reduction in C26:0 LPC level in Cynomolgus monkey plasma at 15 mg/kg, po qd for 13 weeks by LC-MS/MS analysis (reference value: 2.495 ng/ml); assay type: functional, Macaca fascicularis
# [6] = target: Rho-associated protein kinase 1 (Homo sapiens) (UniProt Q13464); experiment: Inhibition of ROCK 1 (unknown origin) at 10 uM
# Sequence of Rho-associated protein kinase 1 (Homo sapiens) (Q13464 2-1354 limits assumed): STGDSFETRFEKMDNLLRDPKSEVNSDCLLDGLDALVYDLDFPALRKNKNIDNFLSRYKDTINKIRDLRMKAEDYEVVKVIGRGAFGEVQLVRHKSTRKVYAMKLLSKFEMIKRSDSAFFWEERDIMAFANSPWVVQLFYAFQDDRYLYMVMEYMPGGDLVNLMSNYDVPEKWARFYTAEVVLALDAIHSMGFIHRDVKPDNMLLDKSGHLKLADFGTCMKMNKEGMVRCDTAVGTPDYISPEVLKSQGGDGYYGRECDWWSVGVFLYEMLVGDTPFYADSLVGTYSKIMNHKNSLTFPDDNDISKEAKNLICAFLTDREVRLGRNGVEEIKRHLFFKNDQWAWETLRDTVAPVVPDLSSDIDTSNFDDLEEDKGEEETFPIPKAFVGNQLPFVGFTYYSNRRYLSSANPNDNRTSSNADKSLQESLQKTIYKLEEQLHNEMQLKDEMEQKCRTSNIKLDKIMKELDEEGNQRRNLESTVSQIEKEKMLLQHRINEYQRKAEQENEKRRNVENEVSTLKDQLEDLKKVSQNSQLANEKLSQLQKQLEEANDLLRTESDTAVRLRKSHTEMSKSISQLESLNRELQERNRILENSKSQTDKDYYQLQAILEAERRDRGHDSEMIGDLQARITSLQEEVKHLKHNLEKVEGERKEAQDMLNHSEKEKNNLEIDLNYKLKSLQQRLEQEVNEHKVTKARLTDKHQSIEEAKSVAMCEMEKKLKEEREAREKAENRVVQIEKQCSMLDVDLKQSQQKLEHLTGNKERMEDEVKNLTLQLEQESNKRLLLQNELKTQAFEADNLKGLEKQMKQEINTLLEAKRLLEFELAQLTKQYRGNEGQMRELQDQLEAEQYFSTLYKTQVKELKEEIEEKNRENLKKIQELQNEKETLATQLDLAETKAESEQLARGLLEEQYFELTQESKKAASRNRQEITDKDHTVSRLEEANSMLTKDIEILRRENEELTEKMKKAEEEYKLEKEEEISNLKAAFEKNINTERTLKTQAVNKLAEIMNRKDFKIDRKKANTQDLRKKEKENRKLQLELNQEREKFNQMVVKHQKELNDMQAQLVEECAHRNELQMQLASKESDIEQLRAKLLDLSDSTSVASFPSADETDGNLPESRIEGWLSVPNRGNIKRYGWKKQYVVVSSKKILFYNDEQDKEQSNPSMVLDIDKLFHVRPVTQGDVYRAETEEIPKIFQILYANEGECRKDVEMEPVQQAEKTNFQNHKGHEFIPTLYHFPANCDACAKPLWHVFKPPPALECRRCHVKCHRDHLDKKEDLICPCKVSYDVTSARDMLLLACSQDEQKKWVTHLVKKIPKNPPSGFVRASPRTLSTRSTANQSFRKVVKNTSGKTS
# [7] = target: T1, Very long chain fatty acid elongase 1 (Homo sapiens, UniProt Q9BW60); experiment: Inhibition of ELOVL1 in Het […] 2 patient-derived human lymphocyte assessed as reduction of C26:0 VLCFA synthesis incubated for 48 hrs by cellular assay; assay type: cell-based
# T1 sequence (Q9BW60 whole entry): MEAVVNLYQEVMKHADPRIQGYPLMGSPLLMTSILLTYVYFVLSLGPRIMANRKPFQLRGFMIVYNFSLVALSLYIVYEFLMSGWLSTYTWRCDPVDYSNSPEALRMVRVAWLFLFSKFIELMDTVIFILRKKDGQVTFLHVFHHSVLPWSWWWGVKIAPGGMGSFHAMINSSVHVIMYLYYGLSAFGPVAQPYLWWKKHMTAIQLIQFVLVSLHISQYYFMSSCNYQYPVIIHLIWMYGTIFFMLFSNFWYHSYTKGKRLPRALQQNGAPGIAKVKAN
# [8] = Toxicity in Cynomolgus monkey assessed as ataxia at 50 mg/kg/day, po administered for 14 days; assay type: organism-based, Macaca fascicularis; conditions: in vivo, 336 h, time 14 day
# [9] = Toxicity in Sprague-Dawley rat assessed as corneal neovascularization at 5 mg/kg/day, po administered for 8 weeks by macroscopic observation analysis; assay type: organism-based; conditions: in vivo, 1344 h
# [10] = Reduction of C26:0 /C16:0 LPC level in ABCD1 KO mouse blood at 20 mg/kg, po qd for 8 months by LC-MS/MS analysis relative to control; assay type: functional; set-up: scale not given: the % may be the effect or the level left; conditions: 5840 h
# [11] = target: T1, Very long chain fatty acid elongase 1; experiment: Inhibition of ELOVL1 in Het […] 1 patient-derived human lymphocyte assessed as reduction of C26:0 VLCFA synthesis incubated for 48 hrs by cellular assay; assay type: cell-based
# [12] = Clearance in mouse at 1 mg/kg, iv upto 48 hrs by LC/MS/MS analysis; assay type: ADME, organism-based; conditions: in vivo
# [13] = Tmax in Sprague-Dawley rat at 3 mg/kg, po upto 24 hrs by LC/MS/MS analysis; assay type: ADME, organism-based; conditions: in vivo
# [14] = Cytotoxicity against human THLE-2 cells assessed as decrease in intracellular ATP levels incubated for 72 hrs by Cell Titer-Glo luminescence assay; assay type: toxicity, cell-based; conditions: read-out: TC50
# [15] = Lipophilicity, logD of compound at pH 7.4; assay type: physicochemical; conditions: buffer
# Fibroblast [16] = experiment: Reduction in C26:0 lysophosphatidyl choline synthesis in primary human AMN patient-derived fibroblast incubated for 48 hrs; assay type: functional, cell-based; conditions: DDE = dose-dependent effect
# [17] = Toxicity in Cynomolgus monkey assessed as neurological signs of convulsions at 50 mg/kg/day, po administered for 14 days; assay type: organism-based, Macaca fascicularis; conditions: in vivo, 336 h, time 14 day
# [18] = Toxicity in Sprague-Dawley rat assessed as corneal abnormalities at 5 mg/kg/day, po administered for 8 weeks measured after cessation of dosing; assay type: organism-based; conditions: in vivo, 1344 h
# [19] = Toxicity in Cynomolgus monkey assessed as multifocal gliosis at 20 to 50 mg/kg/day, po administered for 14 days; assay type: organism-based, Macaca fascicularis; conditions: in vivo, 336 h, dose 20-50 mg/kg/day, time 14 day
# Mus musculus [20] = experiment: Reduction in C26:0/C16:0 LPC level in high fat diet fed ABCD1 knock out mouse blood at 1 to 8 mg/kg, po qd after 7 days of dosing measured on day 14 by LC-MS/MS analysis; assay type: functional, organism-based; conditions: dose 1-8 mg/kg, time 14.0 day
# [21] = Toxicity in Cynomolgus monkey assessed as dry and red scaly areas on eyelids at 5 to 50 mg/kg/day, po administered for 14 days by macroscopic observation analysis; assay type: organism-based, Macaca fascicularis; conditions: in vivo, 336 h, dose 5-50 mg/kg/day, time 14 day
# [22] = Oral bioavailability in Beagle dog at 3 mg/kg upto 24 hrs by LC/MS/MS analysis; assay type: ADME, organism-based, Canis lupus familiaris; conditions: in vivo
# Fibroblast [23] = experiment: Reduction in C26:0 lysophosphatidyl choline synthesis in primary human CALD patient-derived fibroblast incubated for 48 hrs; assay type: functional, cell-based; conditions: DDE = dose-dependent effect
# Mus musculus [24] = experiment: Reduction in C26:0/C16:0 LPC level in ABCD1 knock out mouse CNS at 1 to 10 mg/kg, po qd measured after 2 months of dosing by LC-MS/MS analysis; assay type: functional, organism-based; conditions: dose 1-10 mg/kg
# [25] = Toxicity in Sprague-Dawley rat assessed as erosion of forestomach at 5 to 50 mg/kg/day, po administered for 2 to 8 weeks; assay type: organism-based; conditions: in vivo, dose lower 5 mg/kg/day, time lower 2 weeks, dose upper 50 mg/kg/day, time upper 8 weeks
# Mus musculus [26] = experiment: Reduction in C22:0/C16:0 LPC level in ABCD1 knock out mouse CNS at 1 to 10 mg/kg, po qd measured after 3 months of dosing by LC-MS/MS analysis; assay type: functional, organism-based; conditions: dose 1-10 mg/kg
# [27] = Plasma protein binding in human at 5 uM; assay type: ADME, cell-free; conditions: read-out: PPB (converted)
# HEK-293T = experiment: Reduction in C26:0 LPC level in isogenic wild-type human HEK-293T cells with ELOVL-1 expression in presence of 13C-labeled acetate measured after 48 hrs by mass spectroscopy; assay type: functional, cell-based
# [28] = Reduction in C26:0/C16:0 total VLFCA levels in ABCD1 knock out mouse CNS at 10 mg/kg, po qd measured after 2 months of dosing by LC-MS/MS analysis; assay type: functional; set-up: scale not given: the % may be the effect or the level left; conditions: 1460 h
# [29] = Plasma protein binding in monkey at 5 uM; assay type: ADME, cell-free, Macaca mulatta; conditions: rhesus monkey, read-out: PPB (converted)
# [30] = Half life in Sprague-Dawley rat at 1 mg/kg, iv upto 48 hrs by LC/MS/MS analysis; assay type: ADME, organism-based; conditions: in vivo
# [31] = Toxicity in juvenile Sprague-Dawley rat assessed as corneal mineralization at 5 to 75 mg/kg/day, po treatment started from postnatal day 18 to 114 days; assay type: organism-based; conditions: in vivo, dose lower 5 mg/kg/day, time lower 18 day, dose upper 75 mg/kg/day, time upper 114 day
# [32] = Reduction in C26:0 LPC level in ELOVL-1 KO clonal human HEK-293T cells in presence of 13C-labeled acetate measured after 48 hrs by mass spectroscopy relative to control; assay type: functional; set-up: scale not given: the % may be the effect or the level left
# [33] = Half life in Beagle dog at 0.5 mg/kg, iv upto 48 hrs by LC/MS/MS analysis; assay type: ADME, organism-based, Canis lupus familiaris; conditions: in vivo
# [34] = Efflux ratio of permeability across […] in dog MDCK-MDR1 transfected cells by LC-MS analysis; assay type: ADME, cell-based, Canis lupus familiaris
structure (smiles),measurement,setting,value
O=C(Nc1ccn(-c2ccnc(F)c2)n1)C1(c2ccccc2F)CC1,Activity,[1],85%
same,Activity,[2],Toxic
same,Activity,[3],Toxic
same,Activity,[4],54%
same,Activity,[5],0.4475 ng/mL
same,inhibition,[6],> 50%
same,IC50,[7],9 nM
same,Activity,[8],Toxic
same,Activity,[9],Toxic
same,Activity,[10],68%
same,IC50,[11],5 nM
same,clearance,[12],10.7 mL/min/kg
same,Tmax,[13],0.4 h
same,CC50 at 72 h,[14],> 100000 nM
same,logD,[15],3.2
same,Activity,Fibroblast [16],Dde
same,Activity,[17],Toxic
same,Activity,[18],Toxic
same,Activity,[19],Toxic
same,Activity,Mus musculus [20],Active
same,Activity,[21],Toxic
same,bioavailability,[22],77%
same,Activity,Fibroblast [23],Dde
same,Activity,Mus musculus [24],Active
same,Activity,[25],Toxic
same,Activity,Mus musculus [26],Active
same,fraction unbound at 5 µM,[27],0.062
same,Activity,HEK-293T,Active
same,Activity,[28],50%
same,fraction unbound at 5 µM,[29],0.094
same,half-life,[30],3.5 h
same,Activity,[31],Toxic
same,Activity,[32],90%
same,half-life,[33],3.5 h
same,Ratio,[34],1.1
